# pIC50: −log10 of the molar value.
# System: SW 982 tumor spheroid viability
# Test: Anticancer human tumor SW 982 cell line growth inhibition;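 also: spheroids exposed to compound for 7 days before readout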
# Details: spheroids with HUVEC and MSC; for pIC50: curve of first compound; for viability, T/C: stronger effect = lower value
# Summary of the method: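 Complex spheroids of malignant cells with endothelial cells and mesenchymal stem cells; agents alone or combined, from near clinical Cmax (or 10 microM if unknown) down in half-log steps, 0.25% DMSO final.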
smiles,measurement,setting,value
Cc1sc2c(c1C)C(c1ccc(Cl)cc1)=NC(CC(=O)Nc1ccc(O)cc1)c1nnc(C)n1-2 (stereo not given) + COc1cc2c(cc1O)CCNC21CSC2c3c(OC(C)=O)c(C)c4c(c3C(COC1=O)N1C(O)C3Cc5cc(C)c(OC)c(O)c5C(C21)N3C)OCO4,pIC50,second compound 30 pM,6.59
same,pIC50,second compound 94.9 pM,6.46
same,pIC50,second compound 0.0003 µM,6.32
same,pIC50,second compound 0.000949 µM,8.02
same,pIC50,second compound 0.003 µM,> 8.02
same,"viability, T/C","second compound 30 pM, first compound 0.00949 µM",95.5%
same,"viability, T/C","second compound 30 pM, first compound 0.03 µM",94.6%
same,"viability, T/C","second compound 30 pM, first compound 0.0949 µM",75.5%
same,"viability, T/C","second compound 30 pM, first compound 0.3 µM",46.2%
same,"viability, T/C","second compound 30 pM, first compound 0.949 µM",28.5%
same,"viability, T/C","second compound 30 pM, first compound 3 µM",23.6%
same,"viability, T/C","second compound 94.9 pM, first compound 0.00949 µM",97.4%
same,"viability, T/C","second compound 94.9 pM, first compound 0.03 µM",96.7%
same,"viability, T/C","second compound 94.9 pM, first compound 0.0949 µM",71.1%
same,"viability, T/C","second compound 94.9 pM, first compound 0.3 µM",53.8%
same,"viability, T/C","second compound 94.9 pM, first compound 0.949 µM",33.2%
same,"viability, T/C","second compound 94.9 pM, first compound 3 µM",21.6%
same,"viability, T/C","second compound 0.0003 µM, first compound 0.00949 µM",76.6%
same,"viability, T/C","second compound 0.0003 µM, first compound 0.03 µM",82.5%
same,"viability, T/C","second compound 0.0003 µM, first compound 0.0949 µM",70.4%
same,"viability, T/C","second compound 0.0003 µM, first compound 0.3 µM",68%
same,"viability, T/C","second compound 0.0003 µM, first compound 0.949 µM",24.9%
same,"viability, T/C","second compound 0.0003 µM, first compound 3 µM",13.6%
same,"viability, T/C","second compound 0.000949 µM, first compound 0.00949 µM",41.4%
same,"viability, T/C","second compound 0.000949 µM, first compound 0.03 µM",41.3%
same,"viability, T/C","second compound 0.000949 µM, first compound 0.0949 µM",64.8%
same,"viability, T/C","second compound 0.000949 µM, first compound 0.3 µM",19.2%
same,"viability, T/C","second compound 0.000949 µM, first compound 0.949 µM",4.8%
same,"viability, T/C","second compound 0.000949 µM, first compound 3 µM",3.12%
same,"viability, T/C","second compound 0.003 µM, first compound 0.00949 µM",0.7%
same,"viability, T/C","second compound 0.003 µM, first compound 0.03 µM",8.8%
same,"viability, T/C","second compound 0.003 µM, first compound 0.0949 µM",0.33%
same,"viability, T/C","second compound 0.003 µM, first compound 0.3 µM",0.26%
same,"viability, T/C","second compound 0.003 µM, first compound 0.949 µM",0.37%
same,"viability, T/C","second compound 0.003 µM, first compound 3 µM",0.99%
COc1ccc([C@@H](O)c2cc(-c3ncnc4cc(N5CCOCC5)ccc34)c(F)cc2Cl)nn1 + CC[C@@]1(O)C(=O)OCc2c1cc1n(c2=O)Cc2cc3c(CN(C)C)c(O)ccc3nc2-1,pIC50,second compound 0.003 µM,5.35
same,pIC50,second compound 0.00949 µM,5.67
same,pIC50,second compound 0.03 µM,5.92
same,pIC50,second compound 0.0949 µM,6.28
same,pIC50,second compound 0.3 µM,6.89
same,"viability, T/C","second compound 0.003 µM, first compound 0.0316 µM",96.9%
same,"viability, T/C","second compound 0.003 µM, first compound 0.1 µM",95.5%
same,"viability, T/C","second compound 0.003 µM, first compound 0.316 µM",92.1%
same,"viability, T/C","second compound 0.003 µM, first compound 1 µM",90.9%
same,"viability, T/C","second compound 0.003 µM, first compound 3.16 µM",59.8%
same,"viability, T/C","second compound 0.003 µM, first compound 10 µM",27.1%
same,"viability, T/C","second compound 0.00949 µM, first compound 0.0316 µM",86.4%
same,"viability, T/C","second compound 0.00949 µM, first compound 0.1 µM",78.5%
same,"viability, T/C","second compound 0.00949 µM, first compound 0.316 µM",80.7%
same,"viability, T/C","second compound 0.00949 µM, first compound 1 µM",72.2%
same,"viability, T/C","second compound 0.00949 µM, first compound 3.16 µM",38.9%
same,"viability, T/C","second compound 0.00949 µM, first compound 10 µM",15%
same,"viability, T/C","second compound 0.03 µM, first compound 0.0316 µM",73.8%
same,"viability, T/C","second compound 0.03 µM, first compound 0.1 µM",76.2%
same,"viability, T/C","second compound 0.03 µM, first compound 0.316 µM",70.3%
same,"viability, T/C","second compound 0.03 µM, first compound 1 µM",53.9%
same,"viability, T/C","second compound 0.03 µM, first compound 3.16 µM",26.8%
same,"viability, T/C","second compound 0.03 µM, first compound 10 µM",12.8%
same,"viability, T/C","second compound 0.0949 µM, first compound 0.0316 µM",70.6%
same,"viability, T/C","second compound 0.0949 µM, first compound 0.1 µM",68.8%
same,"viability, T/C","second compound 0.0949 µM, first compound 0.316 µM",60.5%
same,"viability, T/C","second compound 0.0949 µM, first compound 1 µM",36.6%
same,"viability, T/C","second compound 0.0949 µM, first compound 3.16 µM",18.5%
same,"viability, T/C","second compound 0.0949 µM, first compound 10 µM",12.8%
same,"viability, T/C","second compound 0.3 µM, first compound 0.0316 µM",52.2%
same,"viability, T/C","second compound 0.3 µM, first compound 0.1 µM",55.7%
same,"viability, T/C","second compound 0.3 µM, first compound 0.316 µM",40.6%
same,"viability, T/C","second compound 0.3 µM, first compound 1 µM",23.2%
same,"viability, T/C","second compound 0.3 µM, first compound 3.16 µM",13.1%
same,"viability, T/C","second compound 0.3 µM, first compound 10 µM",10.2%
